Results as given in the supplement of paper PMC11451515.

Columns and labels:
Conditions in all cases: 48 h
[1] = test system: SEM cells; test: cell viability relative to DMSO control; higher = less cytotoxic
In short: (§1)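 Viability, reported as a per-plate percentage of DMSO wells with cell-free wells as background, came from CellTiter-Glo One luminescence. Reading took place after 48 h at 37°C. Before that, NOMO1 or SEM (500 cells/well) or P12-Ichikawa (1000 cells/well) leukemia cells, adapted for at least four passages in each medium, were seeded in 1536-well plates (5 μl) and pin-dosed with library compounds in DMSO, 47 μM to 0.79 nM over 11 threefold points.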

[2] = test system: P12-Ichikawa; test: as above
In short: as §1

[3] = test system: SEM cells; test: AUC of viability dose-response curve (% viability x log10 dose units); higher = less sensitive
In short: (§2)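 Over 48 h at 37°C, leukemia cells in 1536-well plates (500 or 1000 cells/well), adapted to each medium, received library compounds in DMSO at 11 threefold doses from 47 μM to 0.79 nM. CellTiter-Glo One luminescence, normalised per plate to DMSO and cell-free wells, was fitted by a four-parameter log-logistic function of log10 dose. The area under the curve was then integrated by trapezoidal rule, after scaling curves above full viability and removing those that failed quality control.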

[4] = test system: P12-Ichikawa; test: as above
In short: as §2

[5] = test system: NOMO1; test: as above
In short: as §2

[6] = test system: NOMO1; test: cell viability relative to DMSO control; higher = less cytotoxic
In short: as §1

CC(C)OC(=O)C(C(=O)OC(C)C)=C1S\C=C/S1
cell viability [%]
Conditions | [1] | [2]
HPLM + 10% dialyzed FBS, 0.000781 µM | 112 | 138
HPLM + 10% dialyzed FBS, 0.00234 µM | 119 | 124
HPLM + 10% dialyzed FBS, 0.00702 µM | 128 | 122
HPLM + 10% dialyzed FBS, 0.0211 µM | 125 | 133
HPLM + 10% dialyzed FBS, 0.0632 µM | 120 | 113
HPLM + 10% dialyzed FBS, 0.19 µM | 123 | 124
HPLM + 10% dialyzed FBS, 0.569 µM | 117 | 123
HPLM + 10% dialyzed FBS, 1.71 µM | 123 | 124
HPLM + 10% dialyzed FBS, 5.12 µM | 118 | 126
HPLM + 10% dialyzed FBS, 15.4 µM | 70.1 | 118
HPLM + 10% dialyzed FBS, 46.1 µM | 113 | 101
RPMI 5 mM glucose + 10% FBS, 0.000781 µM | 114 | –
RPMI 5 mM glucose + 10% FBS, 0.00234 µM | 135 | –
RPMI 5 mM glucose + 10% FBS, 0.00702 µM | 122 | –
RPMI 5 mM glucose + 10% FBS, 0.0211 µM | 125 | –
RPMI 5 mM glucose + 10% FBS, 0.0632 µM | 122 | –
RPMI 5 mM glucose + 10% FBS, 0.19 µM | 133 | –
RPMI 5 mM glucose + 10% FBS, 0.569 µM | 141 | –
RPMI 5 mM glucose + 10% FBS, 1.71 µM | 131 | –
RPMI 5 mM glucose + 10% FBS, 5.12 µM | 116 | –
RPMI 5 mM glucose + 10% FBS, 15.4 µM | 50.9 | –
RPMI 5 mM glucose + 10% FBS, 46.1 µM | 109 | –

AUC of viability dose-response curve
Conditions | [3] | [4] | [5]
HPLM + 10% dialyzed FBS | 458 | 443 | 425
RPMI 5 mM glucose + 10% FBS | 446 | 433 | 435
RPMI 5 mM glucose + 10% dialyzed FBS | 438 | 424 | 437

CN(C)C1CCN(C(=O)c2ccc(NC(=O)Nc3nc(N4CCOCC4)nc(N4CCOCC4)n3)cc2)CC1
cell viability [%]
Conditions | [1] | [2] | [6]
HPLM + 10% dialyzed FBS, 0.000781 µM | 83.9 | 91.2 | 85.5
HPLM + 10% dialyzed FBS, 0.00234 µM | 92.1 | 92 | 100
HPLM + 10% dialyzed FBS, 0.00702 µM | 81.5 | 101 | 80
HPLM + 10% dialyzed FBS, 0.0211 µM | 67.4 | 91.7 | 67.8
HPLM + 10% dialyzed FBS, 0.0632 µM | 61.7 | 75.9 | 60.6
HPLM + 10% dialyzed FBS, 0.19 µM | 49.7 | 76 | 52.9
HPLM + 10% dialyzed FBS, 0.569 µM | 41.8 | 66.4 | 43.1
HPLM + 10% dialyzed FBS, 1.71 µM | 31.2 | 64.2 | 44.9
HPLM + 10% dialyzed FBS, 5.12 µM | 30.9 | 57.8 | 40.5
HPLM + 10% dialyzed FBS, 15.4 µM | 23.8 | 34.3 | 28.7
HPLM + 10% dialyzed FBS, 46.1 µM | 19.3 | 20.9 | 25.1
RPMI 5 mM glucose + 10% FBS, 0.000781 µM | 87.9 | 85.6 | 84.8
RPMI 5 mM glucose + 10% FBS, 0.00234 µM | 78.9 | 84.9 | 89.3
RPMI 5 mM glucose + 10% FBS, 0.00702 µM | 94.3 | 82.6 | 90.5
RPMI 5 mM glucose + 10% FBS, 0.0211 µM | 75.1 | 73 | 84.5
RPMI 5 mM glucose + 10% FBS, 0.0632 µM | 65.3 | 56 | 64.9
RPMI 5 mM glucose + 10% FBS, 0.19 µM | 48.4 | 58.5 | 63.6
RPMI 5 mM glucose + 10% FBS, 0.569 µM | 39.3 | 48.2 | 52.7
RPMI 5 mM glucose + 10% FBS, 1.71 µM | 27.4 | 42.2 | 49
RPMI 5 mM glucose + 10% FBS, 5.12 µM | 25.6 | 35.4 | 43.4
RPMI 5 mM glucose + 10% FBS, 15.4 µM | 17.8 | 34.7 | 36.5
RPMI 5 mM glucose + 10% FBS, 46.1 µM | 11.9 | 22.9 | 18.2
RPMI 5 mM glucose + 10% dialyzed FBS, 0.000781 µM | 78.1 | 83.7 | 84.9
RPMI 5 mM glucose + 10% dialyzed FBS, 0.00234 µM | 85.8 | 85.5 | 83.8
RPMI 5 mM glucose + 10% dialyzed FBS, 0.00702 µM | 79.4 | 80.6 | 83.9
RPMI 5 mM glucose + 10% dialyzed FBS, 0.0211 µM | 70.9 | 78.6 | 70.9
RPMI 5 mM glucose + 10% dialyzed FBS, 0.0632 µM | 57.2 | 61.6 | 60.8
RPMI 5 mM glucose + 10% dialyzed FBS, 0.19 µM | 52.5 | 56.2 | 53.3
RPMI 5 mM glucose + 10% dialyzed FBS, 0.569 µM | 41.9 | 47.4 | 45.8
RPMI 5 mM glucose + 10% dialyzed FBS, 1.71 µM | 33.4 | 43.4 | 44.4
RPMI 5 mM glucose + 10% dialyzed FBS, 5.12 µM | 32.1 | 41.5 | 39.6
RPMI 5 mM glucose + 10% dialyzed FBS, 15.4 µM | 22 | 34 | 38
RPMI 5 mM glucose + 10% dialyzed FBS, 46.1 µM | 14.6 | 20.1 | 22.8

AUC of viability dose-response curve
Conditions | [3] | [4] | [5]
HPLM + 10% dialyzed FBS | 252 | 340 | 271
RPMI 5 mM glucose + 10% FBS | 248 | 270 | 296
RPMI 5 mM glucose + 10% dialyzed FBS | 247 | 275 | 272

OC(c1cc(C(F)(F)F)nc2c(C(F)(F)F)cccc12)C1CCCCN1 (stereo not drawn)
cell viability [%]
Conditions | HPLM + 10% dialyzed FBS | RPMI 5 mM glucose + 10% FBS | RPMI 5 mM glucose + 10% dialyzed FBS
[1], 0.000781 µM | 103 | 117 | 117
[1], 0.00234 µM | 115 | 118 | 130
[1], 0.00702 µM | 109 | 131 | 122
[1], 0.0211 µM | 116 | 149 | 136
[1], 0.0632 µM | 117 | 133 | 135
[1], 0.19 µM | 139 | 138 | 129
[1], 0.569 µM | 91.8 | 93.9 | 81.2
[1], 1.71 µM | 54.7 | 63.4 | 47.8
[1], 5.12 µM | 126 | 132 | 137
[1], 15.4 µM | 132 | 114 | 130
[1], 46.1 µM | 7.71 | 9.68 | 10.3
[6], 0.000781 µM | 117 | – | –
[6], 0.00234 µM | 124 | – | –
[6], 0.00702 µM | 115 | – | –
[6], 0.0211 µM | 127 | – | –
[6], 0.0632 µM | 146 | – | –
[6], 0.19 µM | 150 | – | –
[6], 0.569 µM | 158 | – | –
[6], 1.71 µM | 142 | – | –
[6], 5.12 µM | 143 | – | –
[6], 15.4 µM | 114 | – | –
[6], 46.1 µM | 8.46 | – | –

AUC of viability dose-response curve
Conditions | [3] | [4] | [5]
HPLM + 10% dialyzed FBS | 455 | 468 | 447
RPMI 5 mM glucose + 10% FBS | 453 | 458 | 453
RPMI 5 mM glucose + 10% dialyzed FBS | 455 | 473 | 452

C=C1/C(=C\C=C2/CCC[C@]3(C)[C@@H]([C@H](C)CCCC(C)(C)O)CC[C@@H]23)C[C@@H](O)C[C@@H]1O
Conditions | cell viability [%]
[1], RPMI 5 mM glucose + 10% FBS, 0.000781 µM | 105
[1], RPMI 5 mM glucose + 10% FBS, 0.00234 µM | 120
[1], RPMI 5 mM glucose + 10% FBS, 0.00702 µM | 117
[1], RPMI 5 mM glucose + 10% FBS, 0.0211 µM | 113
[1], RPMI 5 mM glucose + 10% FBS, 0.0632 µM | 123
[1], RPMI 5 mM glucose + 10% FBS, 0.19 µM | 110
[1], RPMI 5 mM glucose + 10% FBS, 0.569 µM | 126
[1], RPMI 5 mM glucose + 10% FBS, 1.71 µM | 113
[1], RPMI 5 mM glucose + 10% FBS, 5.12 µM | 92.9
[1], RPMI 5 mM glucose + 10% FBS, 15.4 µM | 98.7
[1], RPMI 5 mM glucose + 10% FBS, 46.1 µM | 57.2
[2], HPLM + 10% dialyzed FBS, 0.000781 µM | 122
[2], HPLM + 10% dialyzed FBS, 0.00234 µM | 126
[2], HPLM + 10% dialyzed FBS, 0.00702 µM | 118
[2], HPLM + 10% dialyzed FBS, 0.0211 µM | 131
[2], HPLM + 10% dialyzed FBS, 0.0632 µM | 124
[2], HPLM + 10% dialyzed FBS, 0.19 µM | 123
[2], HPLM + 10% dialyzed FBS, 0.569 µM | 120
[2], HPLM + 10% dialyzed FBS, 1.71 µM | 117
[2], HPLM + 10% dialyzed FBS, 15.4 µM | 118
[2], HPLM + 10% dialyzed FBS, 46.1 µM | 90.4

AUC of viability dose-response curve
Conditions | [3] | [4] | [5]
HPLM + 10% dialyzed FBS | 459 | 454 | 440
RPMI 5 mM glucose + 10% FBS | 449 | 445 | 448
RPMI 5 mM glucose + 10% dialyzed FBS | 450 | 458 | 448
